From patent publication US11311522B1 (Cavion, Inc., priority 2018, dated 2022)

Assay: PN001/Part I: safety and tolerability
Type: in vivo, human
Description: Safety was monitored throughout by adverse events, vital signs, and repeated clinical and laboratory evaluations. […] All adverse events were mild or moderate and severity and transient.

SMILES: CC(C)c1ccc(CC(=O)N[C@H](C)c2ccc(OCC(F)(F)F)cn2)cc1 [CX-8998]
- Abnormal physical sensation (12 mg): 0 n (%)
- At least 1 adverse event (12 mg): 9 (75.0) n (%)
- Dizziness (12 mg): 1 (8.3) n (%)
- Drowsiness (12 mg): 1 (8.3) n (%)
- Elevated mood (12 mg): 1 (8.3) n (%)
- Euphoric mood (12 mg): 2 (16.7) n (%)
- Eye Disorders (12 mg): 1 (8.3) n (%)
- Fatigue (12 mg): 0 n (%)
- Feeling abnormal (12 mg): 2 (16.7) n (%)
- Floating feeling (12 mg): 0 n (%)
- Gastro-intestinal Disorders (12 mg): 3 (25.0) n (%)
- Hangover effect (12 mg): 0 n (%)
- Headache (12 mg): 2 (16.7) n (%)
- Indifference (12 mg): 0 n (%)
- Injury, Poisoning and Procedural Complications (12 mg): 0 n (%)
- Insomnia (12 mg): 0 n (%)
- Intoxication (12 mg): 0 n (%)
- Irritability (12 mg): 0 n (%)
- Lethargy (12 mg): 1 (8.3) n (%)
- Nervous System Disorders (12 mg): 5 (41.7) n (%)
- Paraesthesia (12 mg): 0 n (%)
- Paraesthesia oral (12 mg): 1 (8.3) n (%)
- Paraesthesia tongue (12 mg): 2 (16.7) n (%)
- Psychiatric Disorders (12 mg): 4 (33.3) n (%)
- Racing thoughts (12 mg): 1 (8.3) n (%)
- Relaxed (12 mg): 4 (33.3) n (%)
- Sensory disturbance (12 mg): 0 n (%)
- Vision blurred (12 mg): 0 n (%)
- Visual disturbance (12 mg): 1 (8.3) n (%)
- Vivid dreams (12 mg): 0 n (%)
- Abnormal physical sensation (12 mg evening): 0 n (%)
- At least 1 adverse event (12 mg evening): 4 (66.7) n (%)
- Dizziness (12 mg evening): 0 n (%)
- Drowsiness (12 mg evening): 1 (16.7) n (%)
- Elevated mood (12 mg evening): 0 n (%)
- Euphoric mood (12 mg evening): 0 n (%)
- Eye Disorders (12 mg evening): 3 (50.0) n (%)
- Fatigue (12 mg evening): 0 n (%)
- Feeling abnormal (12 mg evening): 0 n (%)
- Floating feeling (12 mg evening): 0 n (%)
- Gastro-intestinal Disorders (12 mg evening): 1 (16.7) n (%)
- Hangover effect (12 mg evening): 0 n (%)
- Headache (12 mg evening): 1 (16.7) n (%)
- Indifference (12 mg evening): 0 n (%)
- Injury, Poisoning and Procedural Complications (12 mg evening): 0 n (%)
- Insomnia (12 mg evening): 0 n (%)
- Intoxication (12 mg evening): 0 n (%)
- Irritability (12 mg evening): 0 n (%)
- Lethargy (12 mg evening): 1 (16.7) n (%)
- Nervous System Disorders (12 mg evening): 3 (50.0) n (%)
- Paraesthesia (12 mg evening): 0 n (%)
- Paraesthesia oral (12 mg evening): 0 n (%)
- Paraesthesia tongue (12 mg evening): 1 (16.7) n (%)
- Psychiatric Disorders (12 mg evening): 2 n (%)
- Racing thoughts (12 mg evening): 0 n (%)
- Relaxed (12 mg evening): 0 n (%)
- Sensory disturbance (12 mg evening): 0 n (%)
- Vision blurred (12 mg evening): 0 n (%)
- Visual disturbance (12 mg evening): 3 (50.0) n (%)
- Vivid dreams (12 mg evening): 2 n (%)
- Abnormal physical sensation (16 mg evening): 0 n (%)
- At least 1 adverse event (16 mg evening): 9 (75.0) n (%)
- Dizziness (16 mg evening): 1 (8.3) n (%)
- Drowsiness (16 mg evening): 1 (8.3) n (%)
- Elevated mood (16 mg evening): 3 (25.0) n (%)
- Euphoric mood (16 mg evening): 3 (25.0) n (%)
- Eye Disorders (16 mg evening): 1 (8.3) n (%)
- Fatigue (16 mg evening): 2 (16.7) n (%)
- Feeling abnormal (16 mg evening): 0 n (%)
- Floating feeling (16 mg evening): 1 (8.3) n (%)
- Gastro-intestinal Disorders (16 mg evening): 1 (8.3) n (%)
- Hangover effect (16 mg evening): 2 (16.7) n (%)
- Headache (16 mg evening): 4 (33.3) n (%)
- Indifference (16 mg evening): 2 (16.7) n (%)
- Injury, Poisoning and Procedural Complications (16 mg evening): 0 n (%)
- Insomnia (16 mg evening): 0 n (%)
- Intoxication (16 mg evening): 0 n (%)
- Irritability (16 mg evening): 1 (8.3) n (%)
- Lethargy (16 mg evening): 1 (8.3) n (%)
- Nervous System Disorders (16 mg evening): 8 (66.7) n (%)
- Paraesthesia (16 mg evening): 1 (8.3) n (%)
- Paraesthesia oral (16 mg evening): 0 n (%)
- Paraesthesia tongue (16 mg evening): 0 n (%)
- Psychiatric Disorders (16 mg evening): 8 (66.7) n (%)
- Racing thoughts (16 mg evening): 2 (16.7) n (%)
- Relaxed (16 mg evening): 2 (16.7) n (%)
- Sensory disturbance (16 mg evening): 1 (8.3) n (%)
- Vision blurred (16 mg evening): 1 (8.3) n (%)
- Visual disturbance (16 mg evening): 0 n (%)
- Vivid dreams (16 mg evening): 8 (66.7) n (%)
- Abnormal physical sensation (20 mg evening): 1 (16.7) n (%)
- At least 1 adverse event (20 mg evening): 6 (100) n (%)
- Dizziness (20 mg evening): 0 n (%)
- Drowsiness (20 mg evening): 2 (33.3) n (%)
- Elevated mood (20 mg evening): 1 (16.7) n (%)
- Euphoric mood (20 mg evening): 3 (50.0) n (%)
- Eye Disorders (20 mg evening): 1 (16.7) n (%)
- Fatigue (20 mg evening): 0 n (%)
- Feeling abnormal (20 mg evening): 0 n (%)
- Floating feeling (20 mg evening): 0 n (%)
- Gastro-intestinal Disorders (20 mg evening): 0 n (%)
- Hangover effect (20 mg evening): 0 n (%)
- Headache (20 mg evening): 5 (83.3) n (%)
- Indifference (20 mg evening): 0 n (%)
- Injury, Poisoning and Procedural Complications (20 mg evening): 2 (33.3) n (%)
- Insomnia (20 mg evening): 1 (16.7) n (%)
- Intoxication (20 mg evening): 2 (33.3) n (%)
- Irritability (20 mg evening): 1 (16.7) n (%)
- Lethargy (20 mg evening): 2 (33.3) n (%)
- Nervous System Disorders (20 mg evening): 6 (100) n (%)
- Paraesthesia (20 mg evening): 1 (16.7) n (%)
- Paraesthesia oral (20 mg evening): 0 n (%)
- Paraesthesia tongue (20 mg evening): 0 n (%)
- Psychiatric Disorders (20 mg evening): 5 (83.3) n (%)
- Racing thoughts (20 mg evening): 0 n (%)
- Relaxed (20 mg evening): 4 (66.7) n (%)
- Sensory disturbance (20 mg evening): 2 (33.3) n (%)
- Vision blurred (20 mg evening): 1 (16.7) n (%)
- Visual disturbance (20 mg evening): 0 n (%)
- Vivid dreams (20 mg evening): 2 (33.3) n (%)
- Abnormal physical sensation (24 mg evening): 0 n (%)
- At least 1 adverse event (24 mg evening): 6 (100) n (%)
- Dizziness (24 mg evening): 1 (16.7) n (%)
- Drowsiness (24 mg evening): 3 (50.0) n (%)
- Elevated mood (24 mg evening): 0 n (%)
- Euphoric mood (24 mg evening): 1 (16.7) n (%)
- Eye Disorders (24 mg evening): 2 (33.3) n (%)
- Fatigue (24 mg evening): 0 n (%)
- Feeling abnormal (24 mg evening): 1 (16.7) n (%)
- Floating feeling (24 mg evening): 1 (16.7) n (%)
- Gastro-intestinal Disorders (24 mg evening): 0 n (%)
- Hangover effect (24 mg evening): 0 n (%)
- Headache (24 mg evening): 6 (100) n (%)
- Indifference (24 mg evening): 0 n (%)
- Injury, Poisoning and Procedural Complications (24 mg evening): 0 n (%)
- Insomnia (24 mg evening): 1 (16.7) n (%)
- Intoxication (24 mg evening): 0 n (%)
- Irritability (24 mg evening): 0 n (%)
- Lethargy (24 mg evening): 1 (16.7) n (%)
- Nervous System Disorders (24 mg evening): 6 (100) n (%)
- Paraesthesia (24 mg evening): 1 (16.7) n (%)
- Paraesthesia oral (24 mg evening): 0 n (%)
- Paraesthesia tongue (24 mg evening): 0 n (%)
- Psychiatric Disorders (24 mg evening): 4 (66.7) n (%)
- Racing thoughts (24 mg evening): 1 (16.7) n (%)
- Relaxed (24 mg evening): 0 n (%)
- Sensory disturbance (24 mg evening): 0 n (%)
- Vision blurred (24 mg evening): 1 (16.7) n (%)
- Visual disturbance (24 mg evening): 0 n (%)
- Vivid dreams (24 mg evening): 2 (33.3) n (%)
- Abnormal physical sensation (any dose): 2 (9.1) n (%)
- At least 1 adverse event (any dose): 19 (86.4) n (%)
- Dizziness (any dose): 2 (9.1) n (%)
- Drowsiness (any dose): 7 (31.8) n (%)
- Elevated mood (any dose): 6 (27.3) n (%)
- Euphoric mood (any dose): 8 (36.4) n (%)
- Eye Disorders (any dose): 9 (40.9) n (%)
- Fatigue (any dose): 2 (9.1) n (%)
- Feeling abnormal (any dose): 4 (18.2) n (%)
- Floating feeling (any dose): 2 (9.1) n (%)
- Gastro-intestinal Disorders (any dose): 4 (18.2) n (%)
- Hangover effect (any dose): 2 (9.1) n (%)
- Headache (any dose): 10 (45.5) n (%)
- Indifference (any dose): 2 (9.1) n (%)
- Injury, Poisoning and Procedural Complications (any dose): 2 (9.1) n (%)
- Insomnia (any dose): 2 (9.1) n (%)
- Intoxication (any dose): 2 (9.1) n (%)
- Irritability (any dose): 2 (9.1) n (%)
- Lethargy (any dose): 3 (13.6) n (%)
- Nervous System Disorders (any dose): 16 (72.7) n (%)
- Paraesthesia (any dose): 2 (9.1) n (%)
- Paraesthesia oral (any dose): 2 (9.1) n (%)
- Paraesthesia tongue (any dose): 2 (9.1) n (%)
- Psychiatric Disorders (any dose): 15 (68.2) n (%)
- Racing thoughts (any dose): 4 (18.2) n (%)
- Relaxed (any dose): 9 (40.9) n (%)
- Sensory disturbance (any dose): 3 (13.6) n (%)
- Vision blurred (any dose): 4 (18.2) n (%)
- Visual disturbance (any dose): 4 (18.2) n (%)
- Vivid dreams (any dose): 11 (50.0) n (%)
- Tolerability (single doses): Single doses up to 16 mg were generally well tolerated
